The results in this text go back to patent publication US10959968B2, “Methods for treating c-Met-dependent cancers” (Board of Supervisors of Louisiana State University and …, priority 2016, dated 2021).

Data set [1] has as its system non-tumorigenic human MCF10A mammary epithelial cells. As to the kind of experiment: Viability of non-tumorigenic mammary epithelial cells. As to conditions: similar treatment doses; 24 h. The format is cell-based.
The subject of data set [2] is MDA-MB-231 breast cancer cells. As to the kind of experiment: LDH cytotoxicity assay. As to conditions: MDA-MB-231 cells; 50 μM and 100 μM. The format is cell-based, human. On the procedure:
FIG. 3. (A) Effect of HVS treatment on HGF-stimulated growth of Met-dependent MDA-MB-231, MDA-MB-468, MCF-7. and BT-474 breast cancer cells after 72 h treatment period, compared to DMSO as vehicle control. Viable cell count was determined using MTT assay. Vertical bars indicate the mean cell count±SEM of N=3 in each treatment group; (−)-oleocanthal was used as a positive control at 20 μM. (B) Effect of HVS treatment on HGF-stimulated growth of Met-independent T-47D breast cancer cells after 72 h treatment period. Viable cell count was determined using MTT assay. Vertical bars indicate the mean cell count±SEM of N=3 in each treatment group. […] Triton X-100 was used as a positive control to cause the breakdown of all the cells and induce the total possible LDH release. (D) Effects of HVS treatment on the viability of non-tumorigenic human MCF10A mammary epithelial cells after a 24 h treatment period, compared to DMSO as vehicle control. (E) As in panel (A) but without HGF. […] Viable cell count was determined using MTT assay. Vertical bars indicate the mean cell count±SEM of N=3 in each treatment group; doxorubicin was used as a positive control at 10 μM dose. *P<0.05 as compared with vehicle treated control.
[…]. Selection of the aforementioned breast cancer cells was based on their phenotypes. […]

In data set [3] the test system is c-Met phosphorylation in MDA-MB-231, MCF-7, and BT-474 mammary tumor cells. As to the kind of experiment: Western blot of HGF-induced c-Met activation in breast cancer cells. The format is cell-based, human. How it is done:
FIG. 4. A) Effect of HVS treatment on HGF-induced c-Met activation in human breast cancer cells using Western Blot analysis. […] The visualization of β-tubulin was used as a loading control. (B) Effect of HVS on HGF-induced c-Met activation and its downstream mitogenic signaling in DU145 human prostate cancer cells, as compared to vehicle-treated control group, using Western Blot analysis. Cells were pre-treated for 30 minutes with either HVS at 0.1, 0.3, 1, and 5 μM or (−)-oleocanthal at 5, 10, and 20 μM doses in serum-free 0.4-media. 33 ng/mL HGF was then added for 30 minutes. Whole cell lysates were collected and assayed by Western Blot. The visualization of α-tubulin was used as a loading control. Representative Western Blots from each experiment are shown, N=3.
Activation of c-Met prevents apoptosis and maintains cancer cell survival through activation of PI3K and subsequent Akt-NFκB activation.

Data set [4] relates to MDA-MB-231/GFP human breast cancer cells. As to the kind of experiment: Orthotopic breast cancer xenograft in athymic nude mice. As to conditions: 10 mg/kg ip, 3×/week; end of study. The format is in vivo.
Procedure: Treatment regimens were administered 3×/week, starting 5 days postinoculation. (A) Left panel; tumor volume was evaluated periodically during treatment at the indicated days postinoculation. Tumor volume (V) was calculated by V=(L×W^2)/2, where L was the length and W was the width of tumors. Points, the mean of tumor volume in mm^3 of several tumors (n=5) during the course of the treatment period; bars±SEM. *P<0.05 as compared to vehicle-treated control. Right panel; shown are two mice harboring human breast cancer. […] Error bars indicate SEM for n=5. (C) Left panel; vertical bars indicate mean tumor weight at the end of the experiment.*P<0.05 as compared to the vehicle-treated control. Error bars indicate SEM for n=5.
Breast tumor growth was compared between animals dosed ip with 10 mg/kg of HVS (n=5), 3×/week, starting on the 5th day post-inoculation and continuing for 4 weeks, vs. non-treated animals in a control group (DMSO). Tumor progression was followed by direct measurement of tumor volume starting 14 days after orthotopic cell inoculation.
The next data set has as its target ABL1 (Homo sapiens, UniProt P00519). As to the kind of experiment: SelectScreen Kinase Profiling. It is filed as biochemical. As to conditions: read-out: Mean inhibition at 10 μM of HVS (%).
The target in the next data set is ALK (Homo sapiens, UniProt Q9UM73). As to the kind of experiment: SelectScreen Kinase Profiling. As to conditions: read-out: Mean inhibition at 10 μM of HVS (%). The format is biochemical. On the procedure:
(§1) HVS was evaluated against a cross-section of tyrosine kinases (TKs), which are known to be structurally related and oncogenically relevant to c-Met, in order to understand its selectivity profile. A panel of 15 TKs was selected for biochemical analysis through the SelectScreen Kinase Profiling Service (Invitrogen, CA). In this assay, the results are expressed as % inhibition at a 10 μM dose (see Table I below).
(§2) Table I (Above) HVS was evaluated against a cross-section of tyrosine kinases (TKs), which are known to be structurally related and oncogenically relevant to c-Met, in order to understand its selectivity profile (Table 1). A panel of 15 TKs was selected for biochemical analysis through the SelectScreen Kinase Profiling Service (Invitrogen, CA). In this assay, the results are expressed as % inhibition at a 10 μM dose (Table 1).

The next data set has as its target EGFR (ERbB1) (Homo sapiens, UniProt P00533). As to the kind of experiment: SelectScreen Kinase Profiling. As to conditions: read-out: Mean inhibition at 10 μM of HVS (%). It is filed as biochemical. How it is done:
as §1, §2

In a further data set the target is FGFR1 (Homo sapiens, UniProt P11362). As to the kind of experiment: SelectScreen Kinase Profiling. As to conditions: read-out: Mean inhibition at 10 μM of HVS (%). It is filed as biochemical. On the procedure: as §1, §2
Sequence of FGFR1 (P11362 22-822): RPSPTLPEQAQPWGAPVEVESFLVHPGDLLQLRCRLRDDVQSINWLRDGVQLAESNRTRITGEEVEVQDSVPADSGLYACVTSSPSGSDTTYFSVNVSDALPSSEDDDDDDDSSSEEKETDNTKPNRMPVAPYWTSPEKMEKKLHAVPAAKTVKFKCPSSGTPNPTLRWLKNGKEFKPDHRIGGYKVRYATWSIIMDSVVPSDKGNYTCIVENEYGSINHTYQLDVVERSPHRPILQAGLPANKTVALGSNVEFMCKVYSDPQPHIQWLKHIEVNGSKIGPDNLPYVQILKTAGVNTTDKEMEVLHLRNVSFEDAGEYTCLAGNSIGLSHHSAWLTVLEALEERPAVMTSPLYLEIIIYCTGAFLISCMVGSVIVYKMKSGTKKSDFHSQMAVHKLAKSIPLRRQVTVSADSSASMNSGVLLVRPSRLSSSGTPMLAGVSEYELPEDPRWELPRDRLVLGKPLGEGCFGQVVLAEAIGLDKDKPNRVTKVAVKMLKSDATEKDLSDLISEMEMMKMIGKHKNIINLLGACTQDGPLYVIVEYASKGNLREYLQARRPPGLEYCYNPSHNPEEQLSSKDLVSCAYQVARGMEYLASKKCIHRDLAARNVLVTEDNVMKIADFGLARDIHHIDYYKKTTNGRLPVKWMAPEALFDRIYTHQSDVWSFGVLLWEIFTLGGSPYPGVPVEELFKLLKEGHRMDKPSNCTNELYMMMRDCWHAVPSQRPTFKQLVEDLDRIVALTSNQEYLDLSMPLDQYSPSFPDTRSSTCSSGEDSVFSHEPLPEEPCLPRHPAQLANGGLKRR
In another data set the target is FLT1 (VEGFR1) (Homo sapiens, UniProt P17948). As to the kind of experiment: SelectScreen Kinase Profiling. As to conditions: read-out: Mean inhibition at 10 μM of HVS (%). The format is biochemical. On the procedure: as §1, §2
Another data set addresses HER2 (ERbB2) (Homo sapiens, UniProt P04626). As to the kind of experiment: SelectScreen Kinase Profiling. It is filed as biochemical. As to conditions: read-out: Mean inhibition at 10 μM of HVS (%). How it is done:
as §1, §2

The target in the next data set is HER4 (ERbB4) (Homo sapiens, UniProt Q15303). As to the kind of experiment: SelectScreen Kinase Profiling. It is filed as biochemical. As to conditions: read-out: Mean inhibition at 10 μM of HVS (%). On the procedure:
as §1, §2

For another data set, the target named is IGF1R (Homo sapiens, UniProt P08069). As to the kind of experiment: SelectScreen Kinase Profiling. The format is biochemical. On the procedure: as §1, §2
Sequence of IGF1R (P08069 31-1367): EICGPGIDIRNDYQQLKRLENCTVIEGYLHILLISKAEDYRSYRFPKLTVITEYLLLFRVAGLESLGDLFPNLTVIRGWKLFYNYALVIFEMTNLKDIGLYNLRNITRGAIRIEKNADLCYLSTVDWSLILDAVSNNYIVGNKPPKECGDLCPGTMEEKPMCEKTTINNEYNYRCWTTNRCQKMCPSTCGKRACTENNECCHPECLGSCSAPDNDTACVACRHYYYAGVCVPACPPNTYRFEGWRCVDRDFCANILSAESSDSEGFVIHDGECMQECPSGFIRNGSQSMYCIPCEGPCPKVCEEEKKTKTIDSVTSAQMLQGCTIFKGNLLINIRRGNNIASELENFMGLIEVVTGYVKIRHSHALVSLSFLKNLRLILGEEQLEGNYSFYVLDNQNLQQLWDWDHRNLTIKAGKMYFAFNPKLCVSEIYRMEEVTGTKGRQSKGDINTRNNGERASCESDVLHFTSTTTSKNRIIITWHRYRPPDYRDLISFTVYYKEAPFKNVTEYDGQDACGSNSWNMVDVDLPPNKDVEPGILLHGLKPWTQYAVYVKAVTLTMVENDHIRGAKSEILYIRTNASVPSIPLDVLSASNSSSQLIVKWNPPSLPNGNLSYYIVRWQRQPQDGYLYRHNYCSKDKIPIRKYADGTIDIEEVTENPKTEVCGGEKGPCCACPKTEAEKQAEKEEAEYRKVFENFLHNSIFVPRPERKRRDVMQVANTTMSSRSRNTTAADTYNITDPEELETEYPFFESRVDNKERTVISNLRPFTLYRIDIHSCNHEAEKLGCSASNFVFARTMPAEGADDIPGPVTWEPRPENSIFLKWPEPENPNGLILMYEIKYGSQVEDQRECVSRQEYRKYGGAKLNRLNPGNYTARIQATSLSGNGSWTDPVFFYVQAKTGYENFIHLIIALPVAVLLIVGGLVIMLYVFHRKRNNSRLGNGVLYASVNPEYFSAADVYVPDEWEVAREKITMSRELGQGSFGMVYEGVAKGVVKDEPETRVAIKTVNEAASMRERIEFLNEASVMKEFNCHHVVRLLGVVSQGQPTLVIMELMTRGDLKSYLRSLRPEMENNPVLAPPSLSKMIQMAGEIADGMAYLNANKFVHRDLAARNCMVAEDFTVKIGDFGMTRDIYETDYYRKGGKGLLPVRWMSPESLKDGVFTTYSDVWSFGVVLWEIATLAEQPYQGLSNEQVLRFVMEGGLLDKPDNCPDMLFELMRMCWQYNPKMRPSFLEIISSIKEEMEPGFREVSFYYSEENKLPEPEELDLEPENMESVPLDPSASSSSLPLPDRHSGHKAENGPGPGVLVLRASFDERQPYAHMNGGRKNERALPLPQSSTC
The next data set deals with KDR (VEGFR2) (Homo sapiens, UniProt P35968). As to the kind of experiment: SelectScreen Kinase Profiling. As to conditions: read-out: Mean inhibition at 10 μM of HVS (%). It is filed as biochemical. How it is done:
as §1, §2

For the next data set, the target named is KIT (Homo sapiens, UniProt P10721). As to the kind of experiment: SelectScreen Kinase Profiling. It is filed as biochemical. As to conditions: read-out: Mean inhibition at 10 μM of HVS (%). How it is done:
as §1, §2

Another data set deals with PDGFRβ (Homo sapiens, UniProt P09619). As to the kind of experiment: SelectScreen Kinase Profiling. The format is biochemical. As to conditions: read-out: Mean inhibition at 10 μM of HVS (%). On the procedure: as §1, §2
For another data set, the target named is ROS1 (Homo sapiens, UniProt P08922). As to the kind of experiment: SelectScreen Kinase Profiling. The format is biochemical. As to conditions: read-out: Mean inhibition at 10 μM of HVS (%). On the procedure: as §1, §2
For the data set “MST1R (RON0)”, the target named is MST1R (RON0 (Homo sapiens, UniProt Q04912)). As to the kind of experiment: SelectScreen Kinase Profiling. It is filed as biochemical. As to conditions: read-out: Mean inhibition at 10 μM of HVS (%).
The target of another data set is TYRO3 (RSE) (Homo sapiens, UniProt Q06418). As to the kind of experiment: SelectScreen Kinase Profiling. The format is biochemical. As to conditions: read-out: Mean inhibition at 10 μM of HVS (%).

Sequence of KDR (VEGFR2) (P35968 20-1356): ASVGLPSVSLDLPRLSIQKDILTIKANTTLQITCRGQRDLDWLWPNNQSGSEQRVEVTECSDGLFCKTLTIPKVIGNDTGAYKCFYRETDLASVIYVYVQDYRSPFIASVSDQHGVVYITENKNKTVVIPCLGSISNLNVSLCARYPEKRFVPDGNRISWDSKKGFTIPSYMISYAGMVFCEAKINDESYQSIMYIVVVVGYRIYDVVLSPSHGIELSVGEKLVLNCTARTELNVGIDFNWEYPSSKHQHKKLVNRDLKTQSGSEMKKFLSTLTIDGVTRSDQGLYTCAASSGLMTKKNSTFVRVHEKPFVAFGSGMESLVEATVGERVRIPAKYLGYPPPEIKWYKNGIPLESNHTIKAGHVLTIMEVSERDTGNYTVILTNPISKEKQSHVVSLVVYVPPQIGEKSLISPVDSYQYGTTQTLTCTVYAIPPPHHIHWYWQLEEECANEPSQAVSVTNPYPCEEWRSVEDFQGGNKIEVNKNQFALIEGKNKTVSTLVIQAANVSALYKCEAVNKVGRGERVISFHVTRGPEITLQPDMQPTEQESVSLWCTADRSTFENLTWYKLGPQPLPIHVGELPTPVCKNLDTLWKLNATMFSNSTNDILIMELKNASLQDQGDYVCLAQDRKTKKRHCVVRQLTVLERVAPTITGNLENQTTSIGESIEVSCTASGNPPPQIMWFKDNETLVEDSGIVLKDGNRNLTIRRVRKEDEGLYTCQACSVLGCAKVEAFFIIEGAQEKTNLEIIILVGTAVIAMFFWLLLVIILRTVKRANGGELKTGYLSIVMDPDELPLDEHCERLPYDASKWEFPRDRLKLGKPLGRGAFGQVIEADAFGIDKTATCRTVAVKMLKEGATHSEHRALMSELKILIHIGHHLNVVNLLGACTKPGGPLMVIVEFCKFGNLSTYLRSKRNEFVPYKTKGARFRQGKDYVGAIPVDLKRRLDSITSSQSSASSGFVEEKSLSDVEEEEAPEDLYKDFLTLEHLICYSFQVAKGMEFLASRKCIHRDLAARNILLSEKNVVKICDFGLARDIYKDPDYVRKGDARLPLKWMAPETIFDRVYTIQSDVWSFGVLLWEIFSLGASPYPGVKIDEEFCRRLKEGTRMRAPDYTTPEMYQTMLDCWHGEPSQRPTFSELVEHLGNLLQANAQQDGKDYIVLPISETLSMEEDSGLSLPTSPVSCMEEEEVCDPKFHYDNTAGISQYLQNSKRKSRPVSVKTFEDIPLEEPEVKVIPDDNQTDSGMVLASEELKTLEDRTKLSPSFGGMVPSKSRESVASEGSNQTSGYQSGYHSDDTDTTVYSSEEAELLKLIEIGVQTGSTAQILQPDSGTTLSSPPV
Sequence of EGFR (ERbB1) (P00533 25-1210): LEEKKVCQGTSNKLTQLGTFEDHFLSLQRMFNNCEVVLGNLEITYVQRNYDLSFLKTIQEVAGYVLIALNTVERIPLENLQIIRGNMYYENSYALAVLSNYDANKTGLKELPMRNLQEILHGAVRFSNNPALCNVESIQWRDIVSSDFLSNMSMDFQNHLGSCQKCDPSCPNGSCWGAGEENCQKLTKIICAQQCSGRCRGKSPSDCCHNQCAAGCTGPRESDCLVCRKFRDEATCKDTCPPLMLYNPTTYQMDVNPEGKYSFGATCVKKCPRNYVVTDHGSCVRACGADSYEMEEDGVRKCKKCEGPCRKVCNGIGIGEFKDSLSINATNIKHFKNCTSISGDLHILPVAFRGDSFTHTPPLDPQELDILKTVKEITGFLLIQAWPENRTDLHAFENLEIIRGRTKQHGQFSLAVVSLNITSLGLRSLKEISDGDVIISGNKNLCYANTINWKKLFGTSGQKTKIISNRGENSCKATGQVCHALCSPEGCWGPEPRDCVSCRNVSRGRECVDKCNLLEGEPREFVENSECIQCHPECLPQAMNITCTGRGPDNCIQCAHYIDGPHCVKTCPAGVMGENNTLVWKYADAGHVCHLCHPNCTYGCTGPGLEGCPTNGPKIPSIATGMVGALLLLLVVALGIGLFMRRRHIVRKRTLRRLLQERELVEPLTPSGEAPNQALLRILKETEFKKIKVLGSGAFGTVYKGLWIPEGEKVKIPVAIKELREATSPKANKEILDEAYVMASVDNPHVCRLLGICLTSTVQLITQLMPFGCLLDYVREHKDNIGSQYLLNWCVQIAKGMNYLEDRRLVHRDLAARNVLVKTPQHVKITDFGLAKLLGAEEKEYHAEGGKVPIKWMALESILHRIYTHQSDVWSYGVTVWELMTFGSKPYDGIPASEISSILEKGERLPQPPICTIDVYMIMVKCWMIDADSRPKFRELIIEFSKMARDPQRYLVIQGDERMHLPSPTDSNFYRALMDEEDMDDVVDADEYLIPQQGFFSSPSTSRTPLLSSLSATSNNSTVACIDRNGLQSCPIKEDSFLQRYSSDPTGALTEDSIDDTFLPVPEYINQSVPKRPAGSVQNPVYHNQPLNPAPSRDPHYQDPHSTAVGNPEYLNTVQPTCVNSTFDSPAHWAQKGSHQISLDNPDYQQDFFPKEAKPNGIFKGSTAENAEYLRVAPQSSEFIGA

For the compound `COc1cc(CCOC(=O)/C=C/c2cc(OC)c(O)c(OC)c2)ccc1O` [Compound 8, (E)-4-hydroxy-3-methoxyph-ethyl 3-(4-hydroxy-3,5-dimethoxyphenyl) acrylate], the “effect on non-tumorigenic human MCF10A cells” value in [1] is “no discernable effects”. The LDH release entry in data set [2] is reported as “minimal LDH release”. Moreover, in [3] (72 h treatment), the “HGF-induced c-Met phosphorylation” value was “significant inhibition”. Also, the “total c-Met levels” value in data set [3] (at the tested concentrations) is listed as “did not affect”. Moreover, the “reduction in tumor growth vs vehicle-treated control” value in data set [4] is 92%. The inhibition at 10 µM at ABL1 stood at 79%; at ALK it was 21%; at EGFR (ERbB1), 7%; on FGFR1, 50%; on FLT1 (VEGFR1), 9%; on HER2 (ERbB2), 4%. Further, the inhibition at 10 µM on HER4 (ERbB4) was 7%; at IGF1R (read-out: Mean inhibition at 10 μM of HVS (%)) it was -5%; on KDR (VEGFR2) it was 20%; at KIT, -3%; on PDGFRβ, 14%; at ROS1, 24%. For the same compound, the inhibition at 10 µM was 15% at MST1R (RON0) and 21% at TYRO3 (RSE). Further, on IGF1R, the “Mean inhibition at 10 μM of HVS (%)” value is reported as “no observed inhibition”.
